Literature values, collected in patent US20170000799A1, “ORAL PHARMACEUTICAL COMPOSITION” (LABORATORIOS DEL DR. ESTEVE, S.A., priority 2013, published 2017).

Conditions: many organic solvents, including ethanol

O=C(NC[C@H]1CN(c2ccc(N3CCOCC3=O)cc2)C(=O)O1)c1ccc(Cl)s1 [Rivaroxaban, 5-Cloro-N-[2-oxo-3-[4-(3-oxomorpholin-4-yl)phenyl]-1,3-oxazolidin-5(S)-ylmethyl]-thiophene-2-carboxamide]
solubility in organic solvents: low solubility
